# Assay results reported in patent publication US7279099B2, “Sludge treatment process” (FKOS, LLC, priority 2004, dated 2007).
# Like-named read-outs stand apart in the source and are kept apart here.
# Key:
# Ascaris eggs [1] = experiment: Disinfection of biosolids with chlorine dioxide alone: Ascaris eggs; settings: concentrations as high as 1000 ppm
# bacteria = experiment: Disinfection of biosolids with chlorine dioxide: bacteria
# viruses = experiment: Disinfection of biosolids with chlorine dioxide: viruses
# Ascaris eggs [2] = settings: for Time to PFRP: closed system
# Ascaris = settings: biosolids, closed system; cited from earlier work
# [3] = 1500 mg/L
# poliovirus = settings: ozone at 20–30 mg/L at pH 3.0 for at least two hours; cited from earlier work
# C. perfringens spores = settings: only ozone used; cited from earlier work
# Fecal coliform = settings: ozone at 20–30 mg/L at pH 3.0 for at least two hours; cited from earlier work
# [4] = 24 h, 500 mg/L
smiles,measurement,setting,value
[O][Cl+][O-] [chlorine dioxide],inactivation of Ascaris eggs,Ascaris eggs [1],not able to inactivate
same,inactivation of bacteria,bacteria,capable of inactivating
same,inactivation of viruses,viruses,capable of inactivating
O=NO [nitrous acid],remaining HNO2 dose for PFRP to be reached in two hours,Ascaris eggs [2]; predicted using Equation 2,at least 25.46 mg/g
same,concentration capable of Ascaris inactivation,Ascaris,above 400 mg/L
same,remaining nitrous acid,[3],below 500 mg/L
O=[O+][O-] [ozone],inactivation of poliovirus,poliovirus,at least 90%
same,inactivation of C. perfringens spores,C. perfringens spores,not effective
same,Fecal coliform reduction,Fecal coliform,reduced to a non-detectable level
O=NO [sodium nitrite],Time to PFRP,"Ascaris eggs [2]; TSS 3.02 %, initial NO2 dose 697 mg/L",12 h
same,Time to PFRP,"Ascaris eggs [2]; TSS 3.02 %, initial NO2 dose 1046 mg/L",2 h
same,Time to PFRP,"Ascaris eggs [2]; TSS 5.54 %, initial NO2 dose 1754 mg/L",2 h
same,Time to PFRP,"Ascaris eggs [2]; TSS 5.54 %, initial NO2 dose 2573 mg/L",2 h
same,Average [NO2] Remaining,697 mg/L,340 mg/L
same,Average [NO2] Remaining,1046 mg/L,490 mg/L
same,Average [NO2] Remaining,1754 mg/L,1150 mg/L
same,Average [NO2] Remaining,2573 mg/L,1580 mg/L
same,remaining sodium nitrite level,[4],150 to 250 mg/L
